What was measured:
EP2 [1] = target: T1, EP2 (Homo sapiens, UniProt P43116); experiment: EP2 flipr functional assay; format: cell-based
Excerpt: (§1) US 2007/0129552, incorporated by reference herein, describes the methods used to obtain the in vitro data in the table below.

EP2 [2] = target: T1, EP2; experiment: EP2 cAMP assay; format: cell-based
Excerpt: as §1

EP2 [3] = target: T1, EP2; experiment: EP2 binding (Ki)
Excerpt: as §1

EP4 = EP4 (Homo sapiens, UniProt P35408); experiment: EP4 binding (Ki)
Sequence of EP4 (P35408 whole entry): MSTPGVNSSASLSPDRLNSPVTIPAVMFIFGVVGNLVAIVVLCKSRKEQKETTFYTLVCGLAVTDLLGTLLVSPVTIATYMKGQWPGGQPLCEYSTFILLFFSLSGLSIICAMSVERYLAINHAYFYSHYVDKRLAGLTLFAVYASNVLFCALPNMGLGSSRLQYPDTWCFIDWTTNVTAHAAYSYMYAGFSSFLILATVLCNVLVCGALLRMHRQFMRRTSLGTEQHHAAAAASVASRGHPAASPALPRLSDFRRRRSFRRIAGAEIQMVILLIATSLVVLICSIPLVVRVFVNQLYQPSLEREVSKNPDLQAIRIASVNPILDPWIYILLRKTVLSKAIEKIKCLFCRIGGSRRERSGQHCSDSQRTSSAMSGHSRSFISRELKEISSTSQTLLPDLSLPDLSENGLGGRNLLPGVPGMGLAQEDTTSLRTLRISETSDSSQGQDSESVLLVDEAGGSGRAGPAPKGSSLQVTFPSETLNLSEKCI
Excerpt: as §1

hDP = target: T2, hDP (Homo sapiens, UniProt Q13258); experiment: Other receptors functional assay, hDP; format: cell-based
T2 sequence (Q13258 1-359): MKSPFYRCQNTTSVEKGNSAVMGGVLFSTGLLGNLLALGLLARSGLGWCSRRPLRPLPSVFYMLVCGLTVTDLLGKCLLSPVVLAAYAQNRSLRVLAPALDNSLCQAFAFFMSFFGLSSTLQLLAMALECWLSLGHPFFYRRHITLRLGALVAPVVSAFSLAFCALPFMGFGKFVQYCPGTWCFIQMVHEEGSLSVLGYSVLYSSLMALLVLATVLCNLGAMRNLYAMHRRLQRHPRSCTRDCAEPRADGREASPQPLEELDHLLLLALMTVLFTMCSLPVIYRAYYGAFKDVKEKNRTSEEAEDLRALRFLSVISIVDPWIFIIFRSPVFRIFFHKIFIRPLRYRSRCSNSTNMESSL
Excerpt: as §1

T1 sequence (P43116 whole entry): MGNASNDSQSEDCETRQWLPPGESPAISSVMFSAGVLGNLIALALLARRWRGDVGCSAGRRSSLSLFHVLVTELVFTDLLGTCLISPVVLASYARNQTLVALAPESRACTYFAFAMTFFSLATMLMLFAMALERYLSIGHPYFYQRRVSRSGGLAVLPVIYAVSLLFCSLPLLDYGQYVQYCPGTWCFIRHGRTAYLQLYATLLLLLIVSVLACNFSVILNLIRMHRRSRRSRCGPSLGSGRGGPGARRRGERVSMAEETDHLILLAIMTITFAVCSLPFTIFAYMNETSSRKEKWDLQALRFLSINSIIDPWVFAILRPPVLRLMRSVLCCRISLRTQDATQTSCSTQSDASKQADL

- EC50 (EP2 [1]): 2.82 µM
- EC50 (EP2 [2]): 0.0007 µM
- Ki (EP2 [3]): 0.046 µM
- Ki (EP4): 3.98 µM
- EC50 (hDP): 2190 nM
Structure (SMILES): CCCCCCc1ccc(-n2cccc2CCCc2ccc(C(=O)O)s2)cc1 [Example 1, 5-(3-(1-(4-hexylphenyl)-1H-pyrrol-2-yl)propyl)thiophene-2-carboxylic acid]

Source: patent publication US7985765B2, “Therapeutic substituted pyrroles” (Allergan, Inc., priority 2008, dated 2011)
